ChEMBL document CHEMBL4184284, “MF-8, a novel promising arylpiperazine-hydantoin based 5-HT7 receptor antagonist: In vitro drug-likeness studies and in vivo pharmacological evaluation” (Bioorg Med Chem Lett, 2018)
The source made the active and inactive calls. The calls are words filed in the database; no cut-off is given here.

How the values were obtained:
Mus musculus [1] = experiment: Anxiolytic-like activity in Swiss albino mouse assessed as increase in number of punished crossings at 1.25 to 5 mg/kg, ip administered for 60 mins measured for 1 min post 3 sec electric shock by four-plate test; format: functional, organism-based
HEK293 [2] = experiment: Cytotoxicity against HEK293 cells assessed as reduction in cell viability at 250 uM after 48 hrs by EZ4U labeling based assay; details: human, hek293, 48 h
P-gp [3] = experiment: Activity at recombinant human Pgp expressed in cell membranes assessed as basal ATPase activity at 50 uM after 40 mins by P-gp Glo assay relative to control; format: ADME; details: cell membranes expressing recombinant human P-gp, read-out: Activity
HepG2 [4] = experiment: Cytotoxicity against human HepG2 cells assessed as reduction in ATP level at 1 to 100 uM after 120 mins by bioluminescence-based assay; format: cell-based; details: hepg2, 2 h
Mus musculus [5] = experiment: Anxiolytic-like activity in Swiss albino mouse assessed as increase in number of punished crossings at 2.5 to 5 mg/kg, ip administered for 60 mins measured for 1 min post 3 sec electric shock by four-plate test; format: functional, organism-based
Rattus norvegicus [6] = experiment: Antidepressant-like activity in Wistar rat assessed as decrease in immobility time at 10 mg/kg, ip administered 60 mins prior to test measured for 5 mins by forced swim test; format: functional; set-up: scale not given: the % may be the effect or the level left
Mus musculus [7] = experiment: Antidepressant-like activity in Swiss albino mouse assessed as decrease in immobility time at 1.25 to 2.5 mg/kg, ip administered 60 mins prior to test measured for last 4 mins of 6 mins observation by forced swim test; format: functional, organism-based
[8] = Intrinsic clearance in human liver microsomes at 50 uM preincubated for 5 mins followed by NADPH addition measured up to 45 mins; format: ADME, microsome; details: read-out: CLH
Rattus norvegicus [9] = experiment: Toxicity in Wistar rat assessed as effect on spontaneous locomotor activity at 2.5 to 10 mg/kg, ip measured for 5 mins by open field test; format: organism-based; details: in vivo
[10] = Intrinsic clearance in mouse liver microsomes at 50 uM preincubated for 5 mins followed by NADPH addition measured up to 30 mins; format: ADME, microsome; details: read-out: CLH
[11] = Cytotoxicity against human HepG2 cells assessed as ATP level at 100 uM after 120 mins by bioluminescence-based assay relative to control; format: cell-based; details: read-out: Activity
CYP2D6 = CYP2D6 (Homo sapiens, UniProt P10635); experiment: Inhibition of CYP2D6 (unknown origin) assessed as residual activity at 25 uM using luciferin-ME EGE as substrate by CYP450-Glo assay; format: ADME; details: CYP2D6 enzyme (unknown origin), probe luciferin-ME EGE, read-out: Activity
[12] = Drug metabolism in human liver microsomes at 50 uM preincubated for 5 mins followed by NADPH addition measured after 30 mins by UPLC-MS analysis; format: ADME, microsome; details: 0.5 h
Mus musculus [13] = experiment: Toxicity in Swiss albino mouse assessed as effect on spontaneous locomotor activity at 1.25 to 5 mg/kg, ip measured for 2 to 6 mins; format: organism-based; details: in vivo
Salmonella typhimurium = experiment: Mutagenicity in Salmonella typhimurium TA100 assessed as revertant colonies at 1 to 10 uM by Ames test; format: toxicity, organism-based; details: salmonella enterica subsp. enterica serovar typhimurium
Cytochrome P450 2D6 = Cytochrome P450 2D6 (Homo sapiens, UniProt P10635); experiment: Inhibition of CYP2D6 (unknown origin) at 0.025 to 25 uM using luciferin-ME EGE as substrate by CYP450-Glo assay; format: ADME
[14] = Drug metabolism in mouse liver microsomes at 50 uM preincubated for 5 mins followed by NADPH addition measured after 30 mins by UPLC-MS analysis; format: ADME, microsome; details: 0.5 h
Rattus norvegicus [15] = experiment: Antidepressant-like activity in Wistar rat assessed as decrease in immobility time at 5 mg/kg, ip administered 60 mins prior to test measured for 5 mins by forced swim test; format: functional; set-up: scale not given: the % may be the effect or the level left
[16] = Drug metabolism in rat liver microsomes at 50 uM preincubated for 5 mins followed by NADPH addition measured after 30 mins by UPLC-MS analysis; format: ADME, microsome; details: 0.5 h
[17] = Cytotoxicity against HEK293 cells assessed as cell viability at 100 uM after 48 hrs by EZ4U labeling based assay relative to control; details: human, read-out: Activity
Mus musculus [18] = experiment: Antidepressant-like activity in Swiss albino mouse assessed as decrease in immobility time at 5 mg/kg, ip administered 60 mins prior to test measured for last 4 mins of 6 mins observation by forced swim test; format: functional; set-up: scale not given: the % may be the effect or the level left
[19] = Intrinsic clearance in rat liver microsomes at 50 uM preincubated for 5 mins followed by NADPH addition measured up to 30 mins; format: ADME, microsome; details: read-out: CLH
Mus musculus [20] = experiment: Anxiolytic-like activity in Swiss albino mouse assessed as increase in number of punished crossings at 10 mg/kg, ip administered for 60 mins measured for 1 min post 3 sec electric shock by four-plate test; format: functional
[21] = Effective permeability of the compound at 200 uM after 5 hrs by PAMPA; format: ADME; details: read-out: Peff
Mus musculus [22] = experiment: Toxicity in Swiss albino mouse assessed as effect on spontaneous locomotor activity at 2.5 to 10 mg/kg, ip measured for 1 min; format: organism-based; details: in vivo
P-gp [23] = experiment: Activity at recombinant human Pgp expressed in cell membranes assessed as basal ATPase activity at 200 uM after 200 mins by P-gp Glo assay relative to control; format: ADME; details: cell membranes expressing recombinant human P-gp, read-out: Activity
[24] = Drug metabolism in rat liver microsomes assessed as DM1451 formation at 50 uM preincubated for 5 mins followed by NADPH addition measured after 30 mins by UPLC-MS analysis; format: ADME, microsome; details: 0.5 h
[25] = Drug metabolism in mouse liver microsomes assessed as DM1451 formation at 50 uM preincubated for 5 mins followed by NADPH addition measured after 30 mins by UPLC-MS analysis; format: ADME, microsome; details: 0.5 h
[26] = Drug metabolism in mouse liver microsomes assessed as hydroxylated main metabolite formation at 50 uM preincubated for 5 mins followed by NADPH addition measured after 30 mins by UPLC-MS analysis; format: ADME, microsome; details: 0.5 h
[27] = Drug metabolism in human liver microsomes assessed as OPC-14857 formation at 50 uM preincubated for 5 mins followed by NADPH addition measured after 30 mins by UPLC-MS analysis; format: ADME, microsome; details: 0.5 h
Rattus norvegicus [28] = experiment: Antidepressant-like activity in Wistar rat assessed as decrease in immobility time at 2.5 mg/kg, ip administered 30 mins prior to test measured for 5 mins by forced swim test; format: functional; set-up: scale not given: the % may be the effect or the level left
Mus musculus [29] = experiment: Anxiolytic-like activity in Swiss albino mouse assessed as increase in number of punished crossings at 1 mg/kg, ip administered for 30 mins measured for 1 min post 3 sec electric shock by four-plate test; format: functional, organism-based
Rattus norvegicus [30] = experiment: Antidepressant-like activity in Wistar rat assessed as decrease in immobility time at 1.25 mg/kg, ip administered 30 mins prior to test measured for 5 mins by forced swim test; format: functional; set-up: scale not given: the % may be the effect or the level left
Mus musculus [31] = experiment: Antidepressant-like activity in Swiss albino mouse assessed as decrease in immobility time at 10 mg/kg, ip administered 30 mins prior to test measured for last 4 mins of 6 mins observation by forced swim test; format: functional, organism-based
[32] = Activity at recombinant human Pgp expressed in cell membranes assessed as basal ATPase activity at 100 uM after 200 mins by P-gp Glo assay relative to control; format: ADME
HEK293 [33] = experiment: Cytotoxicity against HEK293 cells assessed as reduction in cell viability at 1 uM after 48 hrs by EZ4U labeling based assay; details: human, hek293, 48 h
Rattus norvegicus [34] = experiment: Antidepressant-like activity in Wistar rat assessed as decrease in immobility time at 30 mg/kg, ip administered 30 mins prior to test measured for 5 mins by forced swim test; format: functional; set-up: scale not given: the % may be the effect or the level left
Mus musculus [35] = experiment: Antidepressant-like activity in Swiss albino mouse assessed as decrease in immobility time at 10 to 20 mg/kg, ip administered 30 mins prior to test measured for last 4 mins of 6 mins observation by forced swim test; format: functional, organism-based
HepG2 [36] = experiment: Cytotoxicity against human HepG2 cells assessed as ATP level at 10 uM after 120 mins by bioluminescence-based assay relative to control; format: cell-based; details: hepg2, 2 h
[37] = Drug level in rat liver microsomes treated with aripiprazole at 50 uM preincubated for 5 mins followed by NADPH addition measured after 30 mins by UPLC-MS analysis; format: ADME, microsome; details: 0.5 h
[38] = Drug level in mouse liver microsomes treated with aripiprazole at 50 uM preincubated for 5 mins followed by NADPH addition measured after 30 mins by UPLC-MS analysis; format: ADME, microsome; details: 0.5 h
[39] = Drug level in human liver microsomes treated with aripiprazole at 50 uM preincubated for 5 mins followed by NADPH addition measured after 30 mins by UPLC-MS analysis; format: ADME, microsome; details: 0.5 h
[40] = Drug level in mouse liver microsomes treated with MF-8 at 50 uM preincubated for 5 mins followed by NADPH addition measured after 30 mins by UPLC-MS analysis; format: ADME, microsome; details: 0.5 h
[41] = Drug level in rat liver microsomes treated with MF-8 at 50 uM preincubated for 5 mins followed by NADPH addition measured after 30 mins by UPLC-MS analysis; format: ADME, microsome; details: 0.5 h
[42] = Drug level in human liver microsomes treated with MF-8 at 50 uM preincubated for 5 mins followed by NADPH addition measured after 30 mins by UPLC-MS analysis; format: ADME, microsome; details: 0.5 h
[43] = Retention time of the compound by UPLC-MS analysis; format: physicochemical

Cytochrome P450 2D6, sequence (P10635 whole entry): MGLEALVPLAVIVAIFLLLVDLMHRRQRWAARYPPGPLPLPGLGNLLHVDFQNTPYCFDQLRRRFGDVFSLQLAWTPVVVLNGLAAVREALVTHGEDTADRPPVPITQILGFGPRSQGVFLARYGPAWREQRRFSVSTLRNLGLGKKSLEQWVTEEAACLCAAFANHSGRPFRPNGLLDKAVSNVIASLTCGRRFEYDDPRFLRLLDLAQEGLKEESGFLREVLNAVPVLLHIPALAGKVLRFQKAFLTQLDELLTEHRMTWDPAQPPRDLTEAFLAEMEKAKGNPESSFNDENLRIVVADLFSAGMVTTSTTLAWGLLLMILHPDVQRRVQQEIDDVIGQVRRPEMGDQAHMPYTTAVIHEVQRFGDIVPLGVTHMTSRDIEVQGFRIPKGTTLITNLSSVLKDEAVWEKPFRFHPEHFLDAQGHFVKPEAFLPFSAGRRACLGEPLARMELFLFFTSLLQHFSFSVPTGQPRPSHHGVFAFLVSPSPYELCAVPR
CYP2D6, sequence (P10635 whole entry): as above

For `CN1C(=O)CN=C(c2ccccc2)c2cc(Cl)ccc21`, the Activity (Mus musculus [1]) was “Active”.
In the case of `COc1ccccc1N1CCN(CC(O)CN2C(=O)NC(C)(c3ccc(F)cc3)C2=O)CC1` (stereo not given), the Activity (HEK293 [2]) is reported as “Toxic”, the activity at 40 min, 50 µM (P-gp [3]) is reported as 88.7% and the Activity (HepG2 [4]) is reported as “Non-Toxic”. For the same compound, the Activity (Mus musculus [5]) was “inactive”, the Activity (Rattus norvegicus [6]) was 26% and the Activity (Mus musculus [7]) was “inactive”. The CLint scaled at 50 µM [8] was 8.2 mL/min/kg, the Activity (Rattus norvegicus [9]) was “Non-Toxic” and the CLint scaled at 50 µM [10] was 17.2 mL/min/kg. For the same compound, the viability at 2 h, 100 µM [11] was 90%, the activity at 25 µM (CYP2D6) was 69.4% and the Drug metabolism [12] was “Metabolite_Detected”. The Activity (Mus musculus [13]) was “Non-Toxic”, the Activity (Salmonella typhimurium) was “Non-Toxic” and the “inhibition (INH)” value (Cytochrome P450 2D6) was “Not Active”. The Drug metabolism [14] was “Metabolite_Detected”, the Activity (Rattus norvegicus [15]) was 35% and the Drug metabolism [16] was “Metabolite_Detected”. The viability at 48 h, 100 µM [17] was 89.2%, the Activity (Mus musculus [18]) was 36% and the CLint scaled at 50 µM [19] was 21.2 mL/min/kg. The Activity (Mus musculus [20]) was 30%, the Papp at 5 h, 200 µM [21] was 2.3 ×10⁻⁶ cm/s and the Activity (Mus musculus [22]) was “Non-Toxic”.
With `COc1ccc(CCN(C)CCCC(C#N)(c2ccc(OC)c(OC)c2)C(C)C)cc1OC` (stereo not given) the activity at 200 min, 200 µM (P-gp [23]) was over 160%.
With `O=C1CCc2ccc(OCCCCN3CCN(c4cccc(Cl)c4Cl)CC3)cc2N1` [ARIPIPRAZOLE] the Drug metabolism [24] was “Metabolite_Detected”, the CLint scaled at 50 µM [10] was 12.5 mL/min/kg and the Drug metabolism [25] was “Metabolite_Detected”. The Drug metabolism [26] was “Metabolite_Detected”, the Drug metabolism [27] was “Metabolite_Detected” and the CLint scaled at 50 µM [19] was 7.02 mL/min/kg.
With `CC1CCN(CC[C@H]2CCCN2S(=O)(=O)c2cccc(O)c2)CC1` the Activity (Rattus norvegicus [28]) was 22%, the Activity (Mus musculus [29]) was “Active” and the Activity (Rattus norvegicus [30]) was 30%. For the same compound, the Activity (Mus musculus [31]) was “Active”.
With `CCn1cc(C(=O)O)c(=O)c2cc(F)c(N3CCNCC3)cc21` [NORFLOXACIN] the Papp at 5 h, 200 µM [21] was 0.95 ×10⁻⁶ cm/s.
SODIUM ORTHOVANAD showed an Activity [32] of 0%.
Work on `Cn1c(=O)c2c(ncn2C)n(C)c1=O` [CAFFEINE] yielded a Papp at 5 h, 200 µM [21] of 3.61 ×10⁻⁶ cm/s.
For `COc1cccc2c1C(=O)c1c(O)c3c(c(O)c1C2=O)C[C@@](O)(C(=O)CO)C[C@@H]3O[C@H]1C[C@H](N)[C@H](O)[C@H](C)O1` [DOXORUBICIN], the Activity (HEK293 [33]) was “Toxic”.
In the case of `CN(C)CCCN1c2ccccc2CCc2ccccc21` [IMIPRAMINE], the Activity (Rattus norvegicus [34]) is reported as 30% and the Activity (Mus musculus [35]) is reported as “Active”.
Work on `N#CC(C#N)=NNc1cccc(Cl)c1` [CARBONYL CYANIDE M-CHLOROPHENYLHYDRAZONE] yielded an Activity (HepG2 [36]) of 78%.
In the case of `O=C1CCc2ccc(OCCCCN3CCN(c4ccc(O)c(Cl)c4Cl)CC3)cc2N1`, the Drug metabolism [37] is reported as “Metabolite_Detected” and the Drug metabolism [38] is reported as “Metabolite_Detected”.
In the case of `O=c1ccc2ccc(OCCCCN3CCN(c4cccc(Cl)c4Cl)CC3)cc2[nH]1`, the Drug metabolism [39] is reported as “Metabolite_Detected”.
In the case of `COc1cc(O)ccc1N1CCN(CC(O)CN2C(=O)NC(C)(c3ccc(F)cc3)C2=O)CC1` (stereo not given), the Drug metabolism [40] is reported as “Metabolite_Detected”, the Drug metabolism [41] is reported as “Metabolite_Detected” and the Drug metabolism [42] is reported as “Metabolite_Detected”. The Retention_time [43] was 3.4 min.
